# How the values were obtained:
# [1] = molecular target: T1, H976Y HDAC4 gain of function mutant (Homo sapiens, UniProt P56524, H976Y); details: H976Y mutant compared with HDAC4; cited from earlier work
# T1 sequence (P56524 1-1084 H976Y): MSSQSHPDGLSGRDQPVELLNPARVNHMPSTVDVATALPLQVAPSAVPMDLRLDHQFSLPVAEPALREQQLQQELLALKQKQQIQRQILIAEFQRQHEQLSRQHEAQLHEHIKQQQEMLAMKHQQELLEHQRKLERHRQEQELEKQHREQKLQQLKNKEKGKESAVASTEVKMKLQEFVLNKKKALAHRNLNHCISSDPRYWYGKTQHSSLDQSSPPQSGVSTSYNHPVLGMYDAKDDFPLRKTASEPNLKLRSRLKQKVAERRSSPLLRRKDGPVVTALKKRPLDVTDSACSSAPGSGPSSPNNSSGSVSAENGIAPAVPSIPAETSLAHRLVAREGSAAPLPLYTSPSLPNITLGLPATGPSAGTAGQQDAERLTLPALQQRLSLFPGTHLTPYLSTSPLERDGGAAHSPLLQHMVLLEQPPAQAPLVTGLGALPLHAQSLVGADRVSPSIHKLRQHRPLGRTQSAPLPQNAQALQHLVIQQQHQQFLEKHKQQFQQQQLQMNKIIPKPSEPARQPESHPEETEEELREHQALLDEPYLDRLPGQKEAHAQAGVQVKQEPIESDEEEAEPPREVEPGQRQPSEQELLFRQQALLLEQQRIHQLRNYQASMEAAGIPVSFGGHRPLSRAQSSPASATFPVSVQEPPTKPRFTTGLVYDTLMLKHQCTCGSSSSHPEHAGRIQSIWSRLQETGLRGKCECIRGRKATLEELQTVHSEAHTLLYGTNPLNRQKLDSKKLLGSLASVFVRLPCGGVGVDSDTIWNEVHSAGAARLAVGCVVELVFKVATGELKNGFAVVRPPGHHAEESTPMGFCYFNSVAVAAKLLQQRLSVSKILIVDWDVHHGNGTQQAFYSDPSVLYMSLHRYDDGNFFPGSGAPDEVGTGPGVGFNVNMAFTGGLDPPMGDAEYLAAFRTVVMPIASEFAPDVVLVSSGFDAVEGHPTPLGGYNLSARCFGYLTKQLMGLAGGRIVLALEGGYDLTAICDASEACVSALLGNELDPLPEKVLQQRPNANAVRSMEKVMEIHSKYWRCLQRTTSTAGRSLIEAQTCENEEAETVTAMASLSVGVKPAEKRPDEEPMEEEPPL
# HDAC1-9 = test: Biochemical HDAC assay, profiling against HDAC1-9; set-up: species or system human; details: dose-response, mean of three replicates
# Method: The inhibitory effect of compounds on HDAC1-9 function was determined in vitro using an optimized homogenous assay performed in 384-well plate format. […] Reactions are performed in assay buffer (50 mM HEPES, 100 mM KCl, 0.001% Tween-20, 0.05% BSA, 200 μM TCEP, pH 7.4) and followed for fluorigenic release of 7-amino-4-methylcoumarin from substrate upon deacetylase and trypsin enzymatic activity. Fluorescence measurements are obtained approximately every five minutes using a multilabel plate reader and plate-stacker (Envision; Perkin-Elmer). Data are analyzed on a plate-by-plate basis for the linear range of fluorescence over time. The first derivative of data obtained from the plate capture corresponding to the mid-linear range is imported into analytical software and annotated with well identity and compound concentration (Spotfire DecisionSite). Replicate experimental data from incubations with inhibitor are normalized to control, solvent-only wells.
# Data are analyzed by logistic regression with determination of IC50 and standard deviation (Spotfire DecisionSite and GraphPad Prism). Calculation of Ki is determined using a derivation of the standard formula Ki=[Inhibitor]/((VON;)*(1+S/Km))−[Substrate]/Km)−1. […]
# Sirtuin2 = molecular target: T2, Sirtuin2 (Homo sapiens, UniProt Q8IXJ6); test: Sirtuin activity assay, Sirtuin2; type: biochemical; details: highest testing concentration
# T2 sequence (Q8IXJ6 1-389): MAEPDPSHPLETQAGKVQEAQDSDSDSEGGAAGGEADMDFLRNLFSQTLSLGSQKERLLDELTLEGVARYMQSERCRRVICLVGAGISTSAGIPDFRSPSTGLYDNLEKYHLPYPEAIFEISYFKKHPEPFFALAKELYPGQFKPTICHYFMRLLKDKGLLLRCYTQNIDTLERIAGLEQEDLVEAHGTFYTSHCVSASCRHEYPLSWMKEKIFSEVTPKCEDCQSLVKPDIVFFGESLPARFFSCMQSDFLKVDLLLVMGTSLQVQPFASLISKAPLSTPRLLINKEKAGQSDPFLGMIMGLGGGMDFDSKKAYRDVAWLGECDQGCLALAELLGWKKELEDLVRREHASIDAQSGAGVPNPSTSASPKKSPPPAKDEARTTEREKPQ
# Method: (§1) A series of compound dilutions (10 fold higher than final concentrations) are made in 10% DMSO in HDAC assay buffer. 5 μl of each dilution is added to 50 μl of the reaction mixture so that the final concentration of DMSO is 1% in all of reactions.
# (§2) All of the enzymatic reactions were conducted in duplicate at room temperature for 3 hours in a 50 μl mixture containing HDAC assay buffer, 5 μg BSA, 100 μM NAD^+, 10 μM HDAC substrate 1, a sirtuin enzyme, and the test compound.
# (§3) After enzymatic reactions, 50 μl of 2×HDAC Developer was added to each well and the plate was incubated at room temperature for an additional 20 minutes. Fluorescence intensity was measured at an excitation of 360 nm and an emission of 460 nm using a BioTek Synergy™ 2 microplate reader.
# (§4) Sirtuin activity assays were performed in duplicates at each concentration. The fluorescent intensity data were analyzed using the computer software, Graphpad Prism. […] The percent activity in the presence of each compound was calculated according to the following equation: % activity=(F−Fb)/(Ft−Fb), where F=the fluorescent intensity in the presence of the compound, Fb=the fluorescent intensity in the absence of the sirtuin, and Ft=the fluorescent intensity in the absence of the compound. […]
# (§5) If the IC50 value is not available, the % inhibition of the compound at the highest testing concentration was calculated.
# Sirtuin3 = molecular target: T3, Sirtuin3 (Homo sapiens, UniProt Q9NTG7); test: Sirtuin activity assay, Sirtuin3; type: biochemical; details: highest testing concentration
# T3 sequence (Q9NTG7 1-399): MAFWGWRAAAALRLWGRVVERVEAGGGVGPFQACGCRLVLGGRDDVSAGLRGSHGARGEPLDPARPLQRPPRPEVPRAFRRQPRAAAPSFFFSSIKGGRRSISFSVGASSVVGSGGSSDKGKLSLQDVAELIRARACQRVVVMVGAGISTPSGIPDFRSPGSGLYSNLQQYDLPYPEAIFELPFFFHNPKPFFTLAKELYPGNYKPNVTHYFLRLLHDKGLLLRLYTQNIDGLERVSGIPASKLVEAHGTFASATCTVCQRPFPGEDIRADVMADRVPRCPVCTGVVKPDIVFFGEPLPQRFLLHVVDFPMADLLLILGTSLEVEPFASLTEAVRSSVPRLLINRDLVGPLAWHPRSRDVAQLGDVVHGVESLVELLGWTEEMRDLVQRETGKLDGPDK
# Method: as §1, §2, §3, §4, §5
molecule,measurement,setting,value
O=C(/C=C/c1ccc(CN(CCO)CCc2c[nH]c3ccccc23)cc1)NO [LAQ-824],increased affinity for the H976Y HDAC4 gain of function mutant,[1],100 fold
O=C(CCCCCCC(=O)Nc1ccccc1)NO [SAHA],"inhibition of HDAC1-9, isoform selectivity profile",HDAC1-9,unexpected selectivity
"O=C(/C=C/c1ccc(C(=O)N/N=C/c2ccc(O)c(O)c2O)cc1)NO [pandacostat, (E)-N-hydroxy-3-(4-((E)-2-(2,3,4-trihydroxybenzylidene) hydrazinecarbonyl)phenyl) acrylamide]",inhibition at 100 µM,Sirtuin2,~62%
same,inhibition at 100 µM,Sirtuin3,~57%
trichostatin A [TSA],"inhibition of HDAC1-9, isoform selectivity profile",HDAC1-9,unexpected selectivity

# Reference: US10059657B2, “Class-and isoform-specific HDAC inhibitors and uses thereof” (priority 2009, dated 2018)
